Experimental data: PMC10531311, “Anti-Inflammatory Activities of 8-Benzylaminoxanthines Showing High Adenosine A2A and Dual A1/A2A Receptor Affinity” (International Journal of Molecular Sciences, 2023)
Marks after values point to notes of the source that are not given here.

Assays:
[1] = biological target: T1, human adenosine A3R (Homo sapiens, UniProt P0DMS8); assay: Radioligand binding at human adenosine A3 receptor vs. [3H]PSB-11; conditions: for inhibition at 1 µM: CHO cells, read-out: A3R vs. [H³]PSB-11 % Inhibition ± SEM at 1 µM; for Ki: human recombinant receptor in CHO cells, read-out: A3R vs. [H³]PSB-11 Ki ± SEM
T1 construct: expressed in transfected cells; host or cells: CHO cells
T1 sequence (P0DMS8 1-318): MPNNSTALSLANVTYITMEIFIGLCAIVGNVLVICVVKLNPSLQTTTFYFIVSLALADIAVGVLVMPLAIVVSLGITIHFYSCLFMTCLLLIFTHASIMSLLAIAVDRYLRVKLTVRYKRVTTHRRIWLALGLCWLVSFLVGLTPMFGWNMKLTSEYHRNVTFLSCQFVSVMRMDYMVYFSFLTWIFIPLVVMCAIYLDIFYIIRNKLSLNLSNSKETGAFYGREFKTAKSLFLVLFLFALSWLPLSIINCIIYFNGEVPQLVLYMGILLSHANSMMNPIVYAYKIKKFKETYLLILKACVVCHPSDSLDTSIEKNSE
Method: (§1) Affinities for adenosine receptors were evaluated in radioligand binding assays as previously described. Human adenosine receptors were stably expressed in CHO cells. The following radioligands were used: [^3H]2-chloro-N^6-cyclopentyladenosine ([^3H]CCPA) for A1R; [^3H]3-(3-hydroxypropyl)-7-methyl-8-(m-methoxystyryl)-1-propargylxanthine ([^3H]MSX-2) for A2AR; [^3H]8-(4-(4-(4-chlorophenyl)piperazine-1-sulfonyl)phenyl)-1-propylxanthine ([^3H]PSB-603) for A2BR; [^3H]phenyl-8-ethyl-4-methyl-(8R)-4,5,7,8-tetrahydro-1H-imidazo [2,1-i]purine-5-one ([^3H]PSB-11) for A3R. Initially, compounds were tested at a concentration of 1 µM. […] At least three independent experiments were performed. Data were analyzed using GraphPad PRISM version 5.0 or higher (Graph Pad, San Diego, CA, USA). Ki were calculated using the Cheng–Prusoff equation.

[2] = biological target: T2, human adenosine A2BR (Homo sapiens, UniProt P29275); assay: Radioligand binding at human adenosine A2B receptor vs. [3H]PSB-603; conditions: for inhibition at 1 µM: CHO cells, read-out: A2BR vs. [³H]PSB-603 % Inhibition ± SEM at 1 µM; for Ki: human recombinant receptor in CHO cells, read-out: A2BR vs. [³H]PSB-603 Ki ± SEM
T2 construct: expressed in transfected cells; host or cells: CHO cells
T2 sequence (P29275 1-332): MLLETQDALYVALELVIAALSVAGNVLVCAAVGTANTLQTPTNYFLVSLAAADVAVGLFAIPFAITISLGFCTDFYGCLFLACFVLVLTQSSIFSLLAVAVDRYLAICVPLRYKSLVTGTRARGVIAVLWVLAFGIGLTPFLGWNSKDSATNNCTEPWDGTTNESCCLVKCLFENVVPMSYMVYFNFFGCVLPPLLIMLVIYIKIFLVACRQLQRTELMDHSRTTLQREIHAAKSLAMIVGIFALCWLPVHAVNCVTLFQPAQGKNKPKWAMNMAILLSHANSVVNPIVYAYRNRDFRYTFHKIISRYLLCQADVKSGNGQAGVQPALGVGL
Method: as §1

[3] = biological target: T3, human adenosine A2AR (Homo sapiens, UniProt P29274); assay: Radioligand binding at human adenosine A2A receptor vs. [3H]MSX-2; conditions: for Ki: human recombinant receptor in CHO cells, read-out: A2AR vs. [³H]MSX-2 Ki ± SEM; for A2AR vs. [³H]MSX-2 % Inhibition ± SEM at 1 µM: CHO cells
T3 construct: expressed in transfected cells; host or cells: CHO cells
T3 sequence (P29274 whole entry): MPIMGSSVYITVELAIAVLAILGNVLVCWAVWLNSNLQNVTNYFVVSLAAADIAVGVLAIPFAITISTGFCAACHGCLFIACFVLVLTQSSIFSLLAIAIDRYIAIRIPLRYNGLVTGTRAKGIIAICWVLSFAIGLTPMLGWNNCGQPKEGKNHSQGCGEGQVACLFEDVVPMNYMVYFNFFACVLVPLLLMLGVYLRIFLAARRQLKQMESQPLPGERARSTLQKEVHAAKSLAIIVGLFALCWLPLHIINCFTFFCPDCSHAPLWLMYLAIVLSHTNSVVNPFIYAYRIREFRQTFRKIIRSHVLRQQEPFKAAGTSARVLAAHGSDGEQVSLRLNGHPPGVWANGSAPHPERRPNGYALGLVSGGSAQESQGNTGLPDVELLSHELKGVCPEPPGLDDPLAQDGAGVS
Method: as §1

[4] = biological target: T4, human adenosine A1R (Homo sapiens, UniProt P30542); assay: Radioligand binding at human adenosine A1 receptor vs. [3H]CCPA; conditions: for Ki: human recombinant receptor in CHO cells, read-out: A1R vs. [³H]CCPA Ki ± SEM; for inhibition at 1 µM: CHO cells, read-out: A1R vs. [³H]CCPA % Inhibition ± SEM at 1 µM
T4 construct: expressed in transfected cells; host or cells: CHO cells
T4 sequence (P30542 1-326): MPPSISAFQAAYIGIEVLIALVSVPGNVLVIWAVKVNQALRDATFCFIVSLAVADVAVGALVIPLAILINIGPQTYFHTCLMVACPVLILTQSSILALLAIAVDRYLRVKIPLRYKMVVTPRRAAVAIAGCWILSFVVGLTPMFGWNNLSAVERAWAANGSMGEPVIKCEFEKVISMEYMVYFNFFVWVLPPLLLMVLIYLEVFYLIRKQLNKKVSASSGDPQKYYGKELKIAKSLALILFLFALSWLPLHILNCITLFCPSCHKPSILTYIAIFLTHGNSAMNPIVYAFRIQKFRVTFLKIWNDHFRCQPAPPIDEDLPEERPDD
Method: as §1

[5] = tested on: formalin test in mice; assay: Formalin test; type: in vivo, albino Swiss mice; conditions: mice
Method: Injection of formalin into the dorsal surface of the hind paw of a mouse produces a biphasic nocifensive behavioral response; i.e., licking, biting, flinching or lifting of the injected paw. The acute (neurogenic) nociceptive phase lasts for the first 5 min and is followed by a period of little activity for the next 10 min. The first phase of the test is directly associated with nociceptor stimulation and the development of neurogenic inflammation. The second (late) phase occurs between 15 and 30 min after formalin injection. The second phase depends on peripheral inflammation and the central sensitization of pain. Since this phase reflects the activation of inflammatory processes, the compounds active in this phase of the experiment also have an anti-inflammatory effect. The tested compounds 19, 22 and 24, were investigated in three doses: 10, 20 and 40 mg/kg bw. ASA (acetylsalicylic acid) was used as a reference compound and administered in doses of 50, 100 and 200 mg/kg. […] The strongest effect in this assay was produced by 24. […] In addition, this anti-nociceptive and anti-inflammatory effect was approximately 13.8 times greater than that observed for the reference compound (ASA). […] ASA also attenuated statistically significant pain responses in the late phases of the formalin test. […] The in vivo experiments were carried out on male albino Swiss mice weighing 18–26 g and male Wistar rats weighing 150–180 g. The animals were housed in constant temperature facilities exposed to a 12:12 light-dark cycle and maintained on a standard pellet diet and tap water given ad libitum. The control and experimental groups consisted of 6–8 animals each. The investigated compounds were intraperitoneally (ip) administered in the form of a suspension in 0.5% methylcellulose. Control animals received the equivalent volume of solvent. All procedures were conducted according to the guidelines of ICLAS (International Council on Laboratory Animals Science) and were approved by the Local Ethics Committee of the Jagiellonian University in Kraków. The mice were pretreated with the test compound or the vehicle and were allowed to acclimate in Plexiglas observation chambers (20 × 30 × 15 cm) for 30 min before the test. Then, 20 μL of a 5% formalin solution was intraplantarly injected into the right hind paw using a 26-gauge needle. Immediately after formalin injection, the animals were individually placed into glass beakers and were observed during the next 30 min. Time (in seconds) spent on licking or biting the injected paw in selected intervals, 0–5, 15–20, 20–25 and 25–30 min, was measured in each experimental group and was an indicator of nociceptive behavior [41]. The ED50 values and their confidence limits were estimated by the method of Litchfield and Wilcoxon.

inhibition at 1 µM [1] [%]	Ki [1] [nM]	inhibition at 1 µM [2] [%]	Ki [2] [nM]	Ki [3] [nM]	Ki [4] [nM]	melting point [°C]	A2AR vs. [³H]MSX-2 % Inhibition ± SEM at 1 µM [3] [%]	inhibition at 1 µM [4] [%]	Structure (SMILES)	also measured
16	> 1000	9	> 1000	311 ± 167	247 ± 43	172 to 173	–	–	C#CCn1c(=O)c2c(nc(NCc3ccccc3Cl)n2C)n(C2CC2)c1=O [compound 27, 8-((2-Chlorobenzyl)amino)-3-cyclopropyl-7-methyl-1-(prop-2-yn-1-yl)-3,7-dihydro-1H-purine-2,6-dione]	–
-2	> 1000	14	> 1000	386 ± 61	166 ± 65	190 to 192	–	–	C#CCn1c(=O)c2c(nc(NCc3ccccc3F)n2C)n(C2CC2)c1=O [compound 28, 3-Cyclopropyl-8-((2-fluorobenzyl)amino)-7-methyl-1-(prop-2-yn-1-yl)-3,7-dihydro-1H-purine-2,6-dione]	–
40	> 1000	4	> 1000	> 1000	> 1000	198 to 203	23 ± 7	10	Cn1c(NCc2ccccc2Cl)nc2c1c(=O)n(Cc1ccc(Cl)c(Cl)c1)c(=O)n2C [compound 11, 8-((2-Chlorobenzyl)amino)-1-(3,4-dichlorobenzyl)-3,7-dimethyl-3,7-dihydro-1H-purine-2,6-dione]	–
24	> 1000	9	> 1000	323 ± 150	> 1000	205 to 208	–	23	Cn1c(NCc2ccccc2Cl)nc2c1c(=O)n(Cc1ccccc1)c(=O)n2C [compound 9]	–
11	> 1000	32	> 1000	318 ± 141	> 1000	181 to 183	–	21	CCCCn1c(=O)c2c(nc(NCc3ccccc3Cl)n2C)n(C)c1=O [compound 6, 1-Butyl-8-((2-chlorobenzyl)amino)-3,7-dimethyl-3,7-dihydro-1H-purine-2,6-dione]	–
16	> 1000	16	> 1000	204 ± 38	78 ± 9	186 to 187	–	–	C#CCn1c(=O)c2c(nc(NCc3c(F)cccc3Cl)n2C)n(C2CC2)c1=O [compound 29, 8-((2-Chloro-6-fluorobenzyl)amino)-3-cyclopropyl-7-methyl-1-(prop-2-yn-1-yl)-3,7-dihydro-1H-purine-2,6-dione]	–
–	–	–	–	–	–	–	–	–	CC(=O)Oc1ccccc1C(=O)O [ASA, acetylsalicylic acid, reference compound]	ED50 ([5]; Mus musculus, II (late) phase, method of Litchfield and Wilcoxon, read-out: calculated ED50 in the formalin test): 126 mg/kg; Early Phase Inhibition (%) ([5]; 50 mg/kg): 12.4%; Late Phase Inhibition (%) ([5]; 50 mg/kg): 10.0%; Licking of the Hind Paw Early Phase (0–5 min) Mean ± SEM ([5]; 50 mg/kg): 59.8 ± 6.3 s; Licking of the Hind Paw Late Phase (15–30 min) Mean ± SEM ([5]; 50 mg/kg): 108.7 ± 13.8 s; Early Phase Inhibition (%) ([5]; 100 mg/kg): 14.3%; Late Phase Inhibition (%) ([5]; 100 mg/kg): 50.0%; Licking of the Hind Paw Early Phase (0–5 min) Mean ± SEM ([5]; 100 mg/kg): 58.5 ± 4.5 s; Licking of the Hind Paw Late Phase (15–30 min) Mean ± SEM ([5]; 100 mg/kg): 60.3 ± 9.5 ^c sec; Late Phase Inhibition (%) ([5]; 200 mg/kg): 66.3%; Licking of the Hind Paw Early Phase (0–5 min) Mean ± SEM ([5]; 200 mg/kg): 62.0 ± 8.6 s; Licking of the Hind Paw Late Phase (15–30 min) Mean ± SEM ([5]; 200 mg/kg): 40.6 ± 14.0 ^c sec
13	> 1000	41	> 1000	> 1000	> 1000	177 to 180	38 ± 4	35	CCCCCn1c(=O)c2c(nc(NCc3ccccc3Cl)n2C)n(C)c1=O [compound 7, 8-((2-Chlorobenzyl)amino)-3,7-dimethyl-1-pentyl-3,7-dihydro-1H-purine-2,6-dione]	–
31	> 1000	14	> 1000	> 1000	> 1000	228 to 230	–	12	Cn1c(NCc2ccccc2Cl)nc2c1c(=O)n(Cc1ccc(Cl)cc1)c(=O)n2C [compound 10, 1-(4-Chlorobenzyl)-8-((2-chlorobenzyl)amino)-3,7-dimethyl-3,7-dihydro-1H-purine-2,6-dione]	–
31	> 1000	13	> 1000	> 1000	> 1000	191 to 194	9 ± 8	17	CCCCCCn1c(=O)c2c(nc(NCc3ccccc3Cl)n2C)n(C)c1=O [compound 8, 8-((2-Chlorobenzyl)amino)-1-hexyl-3,7-dimethyl-3,7-dihydro-1H-purine-2,6-dione]	–
